Structures are written as SMILES.

Here are results for one compound from patent US20220142958A1, “MEDICINAL COMPOSITION HAVING EXCELLENT STABILITY” (EA Pharma Co., Ltd., priority 2019, published 2022).

For series [1], the system named is serum iPTH. The series is described as follows: Estimation of EC50, PK and clinically effective dose in patients with renal failure. On the set-up: species or system human. An excerpt:
EC50 value in patient with renal failure was estimated based on the calculated EC50 value in healthy adults and the results from the same analysis in normal rats and adenine-treated rat models (pathological rat models). […] Since the difference in the EC50 value between rats in normal state and pathological state is presumed to be caused by the changes in PK that are considered to greatly vary between normal state and pathological state, similar tendency is expected in human as well.
The result from PK fitting, and the contribution rate of renal elimination of the drug (3.2%) calculated using PK-sim (registered trademark) were used to simulate PK prediction in the patients with renal failure. […] As a result, administration of a dose of 0.06 mg/man was estimated to maintain a concentration higher than 1.4 ng/mL for 72 hours (FIG. 2-8).

The test system of series [2] is serum iPTH. The series is described as follows: PK and PK/PD analysis of P1 (three-compartment model, indirect response model incorporating rebound). The format is in vivo, human. The settings on record: ±standard error. Here is the method:
A PK/PD analysis was conducted to estimate the clinically effective dose based on the results from P1. The dose of 2.5 mg seemed to be excessive and thus was eliminated from the analysis. PK (mean plasma concentration) and PD (mean iPTH level normalized by the levels of the placebo group and the 0-hour level) data of the doses of 0.01 mg, 0.1 mg and 1 mg were used. An indirect response model incorporating rebound was used for the PK/PD analysis.
Based on the results of PK of the three given doses (0.01 mg, 0.1 mg, and 1 mg) in P1, the three given doses were simultaneously analyzed using a three-compartment model to calculate the PK parameters (FIG. 2-5 and Table 16-2).
Using the calculated PK parameters as an input function, PK/PD analysis was performed using an indirect response model incorporating rebound (FIG. 2-6) to calculate the EC50 value in healthy adults (FIG. 2-7 and Table 16-3).

In another series the test system is serum iPTH concentration. As to the kind of experiment: Serum iPTH concentration in bilaterally nephrectomized rats after single intravenous administration. In kind it is in vivo, rat. The source says: After quarantine and acclimatization periods of 6 days, fifty-one rats (Crl: CD (SD), male) aged 7 weeks were fed a 100% sucrose diet ad libitum from four days before the surgery. On the day of the surgery, skin incisions were made on the back at the sites of the right and left kidneys under isoflurane anesthesia and the renal capsules were removed to ligate the renal arteries and veins and the ureters using threads before removing the right and left kidneys. A penicillin solution was given upon suturing, and 5 mL of physiological saline was intraperitoneally administered before returning the rats into the breeding cages.
On the day of administering the test substance, for example, a day after the bilaterally nephrectomy, approximately 100 μL of blood was collected from the tail vein without anesthesia using a capillary tube, which was centrifuged in a high speed refrigerated microcentrifuge (10,000 rpm, 5 min, 4° C.) to separate the serum. Thereafter, the serum Ca concentration was measured with a dri-chemanalyzer (model number: FUJI DRI-CHEM 7000, manufacturer: FUJI FILM Medical Co., Ltd.) to select individuals with a serum Ca concentration of 8.0 mg/dL or more and less than 14.0 mg/dL.
On a day after the bilaterally nephrectomy, the given doses were calculated based on the weight of the selected animals on that day. Group 1 was given a medium (physiological saline), Groups 2, 3 and 4 were given the Compound A1 solution (0.3, 3 and 30 mg/mL, respectively), and Groups 5, 6, 7 and 8 (5 rats per group) were given the comparative compound (0.3, 1, 3 and 10 mg/mL, respectively), each given a single dose of 1 ml/kg from the tail vein. Prior to the administration (0 hours), and 24 and 48 hours after the administration, approximately 300 μL of blood was collected without anesthesia from the tail vein using capillary tubes for obtaining the serum. The blood for obtaining the serum was left to stand at room temperature, and centrifuged in a high speed refrigerated microcentrifuge (10,000 rpm, 5 min, 4° C.) within a period of 30 minutes to 2 hours after the blood collection to collect the serum.
Thereafter, the serum Ca was analyzed with COBAS analyzer (Model number: COBAS INTEGRA 400 plus, manufacturer: Roche Diagnostics K.K.), and the remaining serum was stored in an ultra-low freezer (temperature set to −80±15° C.) until the day of iPTH measurement. On the day of iPTH measurement, the serum was melted at room temperature for measurement.
A 30 mg/ml Compound A1 solution ([…] of Compound A1 dissolved in 10 ml of physiological saline) was diluted with physiological saline to prepare 0.3 mg/ml and […] Compound A1 solutions.
149 mg of etelcalcetide (Ac-c(C) arrrar-NH2) TFA salt (WO 2011/014707 A) was prepared to have pH of 6 to 8 with 7 ml of physiological saline and a 0.5N aqueous NaOH solution, and physiological saline was further added thereto to make 10 ml. The prepared 10 mg/ml comparative compound solution was diluted with physiological saline to obtain 0.3 mg/ml and 1 mg/ml comparative compound solutions.

The subject of series [3] is healthy Japanese male adults. The series is described as follows: Phase I clinical trial (P1), single intravenous dose. The format is in vivo, human. The procedure: Thirty-two healthy Japanese male adults were given a single intravenous dose of the test drug (Compound A1) at 0.01 mg, 0.1 mg, 1.0 mg or 2.5 mg in a fasted state to study the pharmacokinetics, pharmacodynamics and safety by a double-blind test using a placebo as a control. Here, the trial drug was administered by diluting a required dose taken from the Compound A1 vial formulation prepared as follows with sterilized water for injection, and filling a syringe with the resultant in accordance with the dose to be administered.
A vial formulation encapsulating 100 mg of Compound A1 in terms of a dehydrate, and sodium chloride, disodium hydrogen phosphate dodecahydrate, and sodium dihydrogen phosphate dihydrate as additives in 10 ml of sterilized water for injection

Where [4] appears, read: single intravenous doses of 0.01, 0.1, 1.0 and 2.5 mg.

As to `Cc1c(Cl)cc(S(=O)(=O)[O-])cc1NC(=O)NC[C@H](N)C(=O)O.[Na+]` [Compound A1, sodium 3-{[(2S)-2-amino-2-carboxyethyl]carbamoylamino}-5-chloro-4-methylbenzenesulfonate], the “dose estimated to maintain a concentration higher than 1.4 ng/mL for 72 hours” value in the series on serum iPTH [1] (PK simulation) is listed as 0.06 mg/man. Further, the “EC50 (estimated)” value in the series on serum iPTH [1] (scaling factor applied to human) was above 0.0014 µg/mL. The compound also showed an Emax in the series on serum iPTH [2] (healthy adults, indirect response model incorporating rebound) of 0.920 ± 0.027 ratio. In the series on serum iPTH [2] (three-compartment model), this compound displayed a K12 of 0.658 ± 0.136 h⁻¹, a K13 of 4.42 ± 1.80 h⁻¹, a K21 of 0.819 ± 0.049 h⁻¹ and a K31 of 6.89 ± 1.33 h⁻¹. In addition, the Ke in the series with serum iPTH [2] (three-compartment model) was found to be 1.28 ± 0.15 h⁻¹. The compound further returned a mean serum iPTH concentration with serum iPTH concentration (0.3 mg/kg single i.v., 24 hours after the administration) of 140 pg/mL. For the same compound, the mean serum iPTH concentration in the series with serum iPTH concentration (0.3 mg/kg single i.v., 48 hours after the administration) worked out at 338 pg/mL. In the series on serum iPTH concentration (3 mg/kg single i.v., 24 hours after the administration), this compound registered a mean serum iPTH concentration of 138 pg/mL. The mean serum iPTH concentration in the series with serum iPTH concentration (3 mg/kg single i.v., 48 hours after the administration) amounted to 280 pg/mL. For the same compound, in the series on serum iPTH concentration (30 mg/kg single i.v., 24 hours after the administration), the mean serum iPTH concentration is 118 pg/mL. In addition, the mean serum iPTH concentration with serum iPTH concentration (30 mg/kg single i.v., 48 hours after the administration) is 245 pg/mL. Further, the EC50 in the series on serum iPTH concentration (Rattus norvegicus, iv, plasma concentration, rats, read-out: 50% effective concentration, EC50 value, for decreasing the serum iPTH concentration) stood at 0.075 µg/mL. For the same compound, the “lower limit value of the serum iPTH concentration (simulated)” value in the series on serum iPTH concentration (logistic curve fitting, 48 hours after the administration vs given dose) was 203.0 pg/mL. The “decrease of serum iPTH and Ca concentrations” value in the series with serum iPTH concentration (renal failure rat models, during 48 hours after the administration, relation to dose) is reported as “sufficiently decreased during the 48 hours after the administration but the decreases were gradual with respect to the increase in the dose”. In addition, the “serum iPTH concentration compared to that before the administration” value in series [3] (0.01 mg and higher dose groups) is “decreased”. In addition, the “safety (side effects)” value in series [3] (1.0 mg and higher dose groups) was “non-severe and mild side effects such as vomiting”. In series [3] (relation to given dose), the “duration of decreased serum iPTH concentration” value is recorded as “extended with the increase in the given dose”. For the same compound, in series [3] (single intravenous doses), the “form excreted into the urine” value is listed as “mostly as unchanged substances” and the “main elimination pathway of the unchanged substance” value is “renal excretion”. For the same compound, in series [3] (setting [4]), the “elimination from the plasma” value is “rapidly eliminated” and the “form present in the plasma” value is recorded as “generally unchanged substances”.
